Test results taken from patent US8628864B2, “Indolo[3,2,1-jk]carbazole compound and organic light-emitting device containing the same” (Canon Kabushiki Kaisha, priority 2010, dated 2014).

What was measured:
Assay type in all cases: physicochemical
[1] = Color of evaporated film on glass substrate left to stand in the air; settings: in the air at room temperature, approximately two hours
[2] = Ionization potential of evaporated thin film, photoelectron spectrometer AC-3
Experimental: The ionization potential of the evaporated thin film used in the measurement of the energy gap described above was measured with a photoelectron spectrometer AC-3 (manufactured by Riken Keiki Co., Ltd.). The ionization potential of the exemplary compound C-1 was 6.01 eV.

[3] = Solubility: amount of chlorobenzene required to dissolve 10 mg of compound; settings: 10 mg compound
Experimental: The amount of chlorobenzene required to dissolve 10 mg of the exemplary compound C-1 was determined. As a result, the amount of chlorobenzene required to dissolve 10 mg of the exemplary compound C-1 was 1 ml or less.

| Color of film 2 h after film formation [1] | Ionization potential [2] [eV] | Amount of chlorobenzene required to dissolve 10 mg of compound [3] | SMILES |
| --- | --- | --- | --- |
| pale yellowish brown | 5.72 | 10 mL | c1ccc2c(c1)c1cc(-c3ccc(-c4cc5c6ccccc6n6c7ccccc7c(c4)c56)cc3)cc3c4ccccc4n2c13 [FH-02] |
| pale yellowish brown | 5.83 | 50 or more ml | c1ccc2c(c1)c1cc(-c3cc(-c4cc5c6ccccc6n6c7ccccc7c(c4)c56)cc(-c4cc5c6ccccc6n6c7ccccc7c(c4)c56)c3)cc3c4ccccc4n2c13 [FH-01] |
